The text below walks through data of PubChem BioAssay (NCI).

Common to all, as to experiment: NCI tumour cell line growth inhibition, 48 h
Test [1] concerns ACHN renal.
The subject of test [2] is COLO 205 colon.
Test [3] concerns HCC-2998 colon.
The subject of test [4] is HOP-62 NSCLC.
The subject of test [5] is K-562 leukemia.
Test [6] relates to OVCAR-4 ovarian.
In test [7] the test system is SF-539 CNS.
Test [8] concerns SK-MEL-2 melanoma.
Test [9] has as its system SNB-19 CNS.

Each structure is given as a SMILES string.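 Growth conditions: 96-well plates. Treatment: test compound, 48 hours, 5 concentrations. Analysis: linear interpolation between bracketing concentrations; unreached endpoints set to highest concentration. Here, GI50 denotes the concentration required for 50% inhibition of growth. TGI: concentration producing complete growth inhibition.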

On to `CC(=O)OC1COC(n2c(=S)n(-c3ccccc3)c(=O)c3cc(Br)ccc32)C(OC(C)=O)C1OC(C)=O` (configuration not stated), for which the TGI was > 100 µM in [1]; > 100 µM in [2]; > 100 µM in test [3]; 47.5 µM in [4]; > 100 µM in test [5]; 31.6 µM in test [6]. Besides, the TGI in [7] is 77.7 µM; in [8], > 100 µM; in [9], 77.3 µM.

Take `CC1=C(C(=O)Nc2ccccc2C)C(/C=C/c2ccccc2)C(C(=O)Nc2ccccc2C)=C(C)N1`: the TGI in test [1], in test [2], in [3], in test [4], in test [5] and in [6] was > 100 µM in each case. In addition, the TGI in test [7], in test [8] and in [9] was > 100 µM in each case.

For the compound `CC(C)c1ccccc1NC(=O)/C(Cl)=C1/Sc2ccccc2NC1=O`, the TGI in test [1] was > 100 µM; in test [2] it was 74.6 µM; in test [3], 93.3 µM; in test [4] it was > 100 µM; in test [5], > 100 µM; in test [6], > 100 µM. The TGI in test [7] was 57.7 µM; in test [8], 37.8 µM; in test [9], > 100 µM.

Take `COc1cc2cnc3c4ccccc4ccc3c2cc1OC`: the TGI in test [1], in test [2], in test [3], in [4], in test [5] and in [6] was > 100 µM each time. The TGI in test [8] and in [9] was > 100 µM throughout.

For the compound `Cc1cc(N(CCC#N)CCC#N)ccc1/C=C1N=C(/C=C/c2ccccc2)OC(=O)N\1`, the TGI in test [1], in test [2], in test [3], in [4], in [5] and in test [7] was > 100 µM in each case. Further, the TGI in test [8] and in [9] was > 100 µM in each case.

Regarding `O=C(O)CCC(NC(=S)S)C(=O)O.[Na+].[Zn+2]` (configuration not stated), the GI50 in test [1], in test [2], in test [3], in [4], in [5] and in [6] was > 50 µM in each case. For the same compound, the GI50 in test [7], in [8] and in test [9] was > 50 µM in each case. Moreover, the TGI in test [1], in test [2], in [3], in [4], in test [5] and in test [6] was > 50 µM each time. Also, the TGI in test [7], in test [8] and in [9] was > 50 µM each time.

Regarding `O=c1ncccn1C1C=C(CO)C(O)C1O` (configuration not stated), the TGI in [1], in test [2], in test [3], in test [4], in test [5] and in test [6] was > 50 µM each time. Moreover, the TGI in [7], in [8] and in [9] was > 50 µM each time.

With `CCN(CC)CC(=O)N1CCc2c([nH]c3ccccc23)C1c1cccnc1` (configuration not stated), the TGI in [1], in [3], in test [4], in test [5], in [6] and in test [7] was > 100 µM throughout. The TGI in [9] was > 100 µM.

Regarding `CCOC1Oc2ccccc2-c2oc(=O)c(Sc3ccc(C)cc3)cc21` (configuration not stated), the GI50 in [1] was 28.8 µM; in test [2], 25.2 µM; in test [3] it was 52.2 µM; in test [4], 58.5 µM; in test [5], 15.4 µM; in test [6] it was 25.1 µM. The results for the GI50 in [7], in test [8] and in [9] were 62.3 µM, 49.4 µM and 29.1 µM, respectively. The TGI in test [1], in test [2], in test [3], in [4], in [5] and in test [6] was > 100 µM in each case. Also, the TGI in test [7], in test [8] and in test [9] was > 100 µM in each case.

As to `CC1CCCc2c1nn(C(=O)/C=C(\N)c1ccccc1)c2N` (configuration not stated), the GI50 is 9.94 µM in test [1]; 10.1 µM in test [2]; 14.6 µM in test [3]; 8.49 µM in [4]; 4.99 µM in [5]; 12.8 µM in test [6]. Besides, the GI50 in [7] is 17.7 µM; in [8] it was 34.8 µM; in test [9] it was 25.2 µM. Besides, the TGI in [1] was > 100 µM; in test [2], 79.1 µM; in test [3], 85.5 µM; in test [4] it was > 100 µM; in [5] it was > 100 µM; in test [6], > 100 µM. Moreover, the TGI in [7], in test [8] and in [9] was > 100 µM each time.

On to `C[C@H]1[C@H](C)CC[C@]2(C(=O)NCCNCCN)CC[C@]3(C)C(=CC[C@@H]4[C@@]5(C)CCC(=O)C(C)(C)[C@@H]5CC[C@]43C)[C@H]12`, for which the GI50 in [1] was 1.76 µM; in test [3] it was 1.66 µM; in [5] it was 2.23 µM; in test [6], 1.93 µM; in test [7], 1.68 µM; in test [8] it was 1.98 µM. Also, the GI50 in [9] was 1.67 µM. Also, the TGI in [1] is 3.27 µM; in test [3] it was 3.07 µM; in test [5], 5.35 µM; in test [6] it was 4 µM; in [7], 3.05 µM; in test [8] it was 4.29 µM. For the same compound, the TGI in [9] came to 3.11 µM.
